Experimental data reported in US20030003491A1, “Method for detecting or quantifying environmental hormones” (priority 2000, published 2003).

System: LH receptor (LH-R) mRNA expression in rat granulosa cells
Assay: Microassay for dioxins using FSH-induced LH-R mRNA expression in rat granulosa cells (Northern blotting, densitometry)
Assay type: cell-based
Settings: for amount of LH-R mRNA expressed relative to that without TCDD addition: normalised to GAPDH mRNA, N=3
Protocol: Rat granulosa cells were obtained from a juvenile female Wistar rat (purchased from Charles River Laboratories, Inc.) which had been injected with 2 mg of diethylstilbestrol (produced by Sigma Chemical Co.) dissolved in 0.1 ml of sesame oil once per day for 4 days. Specifically, the ovary of the juvenile female Wistar rat was removed and a hole was made in its follicle with a 25-gauge needle to take out granulosa cells. During this series of operations, the rat was treated according to the NIH guidelines (Biosafety in microbiological and biomedical laboratories). Then, the obtained granulosa cells were washed and centrifuged to collect them. The viability of the cells was determined by the known trypan blue exclusion method.
The obtained granulosa cells (viability: over 90%) were cultured in Ham's F-12/DME (1:1 vol/vol) (produced by Gibco Laboratories) containing 1.1 g/l NaHCO3, 40 mg/l gentamicin sulfate (produced by Sigma Chemical Co.), 1 mg/l Fungizone (produced by Gibco Laboratories) and 100 mg/l bovine serum albumin (BSA) on a collagen-coated plate in a moist atmosphere (5% CO2, 95% air) at 37° C. [Nakamura, M., et al., Endocrinology, 133, 538-544 (1993)]. The granulosa cells obtained by the culturing were used in Examples.
The rat granulosa cells obtained in Reference Example 1 (5×10^6 living cells) were cultured in 5 ml of a serum-free medium [Ham's F-12/DME (1:1 vol/vol)] on a plate of 60 mm diameter for 24 hours, and the resulting culture was allowed to stand separately in the presence of 30 ng/ml rat FSH (I-8) [obtained from National Hormone and Pituitary Distribution Program (Bethesda Md.)] and in the presence of FSH (30 ng/ml) and 2,3,7,8-tetrachlorodibenzop-dioxin (TCDD) [Sigma Chemical Co.] (1, 10 and 100 pmol/l). TCDD was used after being dissolved in dimethyl sulfoxide.
After culturing was stopped 24, 48 and 72 hours later, RNAs formed in the cells were extracted to obtain pellets of the RNA mixture according to the AGTC method [trade name: Isogen, produced by Nippon Gene Co., Ltd., Chomezynski, P. and Sacchi, N., Anal. Biochem., 162, 156-159 (1987)]. To inhibit RNase, 15 μg of the obtained pellets was dissolved in diethyl-pyrocarbonate-treated water. The resulting solution was subjected to denatured agarose gel electrophoresis and the RNAs were transferred to a nylon membrane (trade name: Biodyne, produced by ICN) to carry out Northern blotting analysis. A film (trade name: Kodak X-Omat, produced by Eastman Kodak Co.) was exposed to the nylon membrane according to the standard manual of a nucleic acid detection kit (produced by Boehringer Mannheim) for fluorescence detection using 2202 UnitroScan Laser Densitometer (produced by LKB Co., Ltd.) to determine the mRNAs.
Rat LH-R mRNA was prepared according to the description in Mol. Cell. Endocrinol., 82, 259-263 (1991). The obtained rat […] into the EcoRI site of Bluescript ks (+) vector, followed by subcloning and linearization with BglII [Nakamura, K., Nakamura, M., Igarashi, S., Miyamoto, K., Eto, Y., Ibuki, Y., and Minegishi, T., Endocrinology, 134, 2329-2335 (1994)]. Then, digoxigenin-labeled LH-R cRNA corresponding to nucleotide numbers 440 to 2560 of the rat LH-R mRNA was prepared by in vitro transcription using T3 RNA polymerase and an RNA-labeling kit.
Each of the rat LH-R mRNAs (5.4 kb) obtained in the above (1) was determined according to the luminescence intensity method. The luminescence intensity was measured with LKB 2202 UnitroScan Laser Densitometer (produced by LKB Co., Ltd.) using the probe prepared in the above (2).
The amount of each rat LH-R mRNA expressed was determined using the amount of GAPDH (glyceraldehyde 3-phosphate dehydrogenase) mRNA expressed as a reference value to obtain the relative value (%) based on the control [addition of only FSH (30 ng/ml)]. The data were expressed in terms of […] of the values obtained by carrying out culturing three times under the same conditions. […]

In the case of `Clc1cc2c(cc1Cl)Oc1cc(Cl)c(Cl)cc1O2` [TCDD, 2,3,7,8-tetrachlorodibenzop-dioxin], the “expression of LH-R mRNA (Northern blotting)” value (1 pmol/l TCDD plus FSH 30 ng/ml, 48 hours) is reported as “a little decrease”, the “expression of LH-R mRNA (Northern blotting)” value (10 pmol/l TCDD plus FSH 30 ng/ml, 48 hours) is reported as “clearly inhibited” and the “amount of expressed LH-R mRNA versus FSH alone (Northern blotting)” value (10 pmol/l TCDD plus FSH 30 ng/ml, after 24 hours of standing) is reported as “difference in the amount of expressed LH-R mRNA already appeared”. The “amount of LH-R mRNA expressed relative to that without TCDD addition” value (10 pmol/l TCDD plus FSH 30 ng/ml, after 24 hours) was “less than 50%”, the “amount of LH-R mRNA expressed relative to that without TCDD addition” value (10 pmol/l TCDD plus FSH 30 ng/ml, after 48 hours) was “less than 50%” and the “amount of LH-R mRNA expressed relative to that without TCDD addition” value (10 pmol/l TCDD plus FSH 30 ng/ml, after 72 hours) was “less than 50%”. For the same compound, the “concentration dependency of LH-R mRNA expression (densitometer)” value (1, 10, 100 pmol/l TCDD plus FSH 30 ng/ml, 48 hours) was “decreased in a manner dependent upon the amount of TCDD added”.
